For 15 compounds, T/C results are on record in PubChem BioAssay AID194 (DTP/NCI, 2004).

The subject of this test is BDF1 mice, B16 melanoma s.c., survival/tumor T/C. In words: NCI In Vivo Anticancer Drug Screen. Data for tumor model B16 Melanoma (subcutaneous) in B6D2F1 (BDF1) mice. On the procedure:
The antitumor activity of compounds was measured in mice bearing transplantable tumors. Survival or tumor size were measured and the results are expressed as the measurement made in the treated group (T) divided by the measurement made in the vehicle treated control group (C). The tumor model used in this assay is B16 Melanoma (subcutaneous) in B6D2F1 (BDF1) mice

Where [1] appears, read: endpoint: median survival time, dose: 1000.0 mg/kg/injection, schedule: Q01DX001 (ip), vehicle: saline, higher = longer survival.

Several values for one entry are separate records, joined by “and”; a condition that tells them apart may be missing. Equal values may be shown once. Records with an inconclusive call do not appear.

For the compound `CC(=O)NNC(=O)c1ccccn1`, the T/C by setting is: (endpoint: median survival time, dose: 6.25 mg/kg/injection, schedule: Q01DX009 (ip), vehicle: Klucel (hydroxypropylcellulose) (HPC), higher = longer survival) 102 % of control; (endpoint: median survival time, dose: 12.5 mg/kg/injection, schedule: Q01DX009 (ip), vehicle: Klucel (hydroxypropylcellulose) (HPC), higher = longer survival) 92 % of control; (endpoint: median survival time, dose: 25.0 mg/kg/injection, schedule: Q01DX009 (ip), vehicle: Klucel (hydroxypropylcellulose) (HPC), higher = longer survival) 86 % of control; (endpoint: median survival time, dose: 50.0 mg/kg/injection, schedule: Q01DX009 (ip), vehicle: Klucel (hydroxypropylcellulose) (HPC), higher = longer survival) 88 % of control and 98 % of control; (endpoint: median survival time, dose: 100.0 mg/kg/injection, schedule: Q01DX009 (ip), vehicle: Klucel (hydroxypropylcellulose) (HPC), higher = longer survival) 88 % of control.

`CCC1=C(C[C@H]2NCCc3cc(OC)c(OC)cc32)C[C@H]2c3cc(OC)c(OC)cc3CCN2C1`: the T/C is 87 % of control (endpoint: median survival time, dose: 2.0 mg/kg/injection, schedule: Q01DX005 (ip), vehicle: saline, higher = longer survival); 93 % of control (endpoint: median survival time, dose: 4.0 mg/kg/injection, schedule: Q01DX005 (ip), vehicle: saline, higher = longer survival); 110 % of control (endpoint: median survival time, dose: 8.0 mg/kg/injection, schedule: Q01DX005 (ip), vehicle: saline, higher = longer survival); 114 % of control (endpoint: median survival time, dose: 16.0 mg/kg/injection, schedule: Q01DX005 (ip), vehicle: saline, higher = longer survival).

Turning to `CCC(=O)OCC(=O)[C@]1(O)Cc2c(O)c3c(c(O)c2[C@@H](OC2CC(N)C(O)C(C)O2)C1)C(=O)c1c(OC)cccc1C3=O` (stereo partly specified), the T/C (endpoint: median survival time, dose: 0.25 mg/kg/injection, schedule: Q01DX009 (ip), vehicle: saline, higher = longer survival) was 90 % of control; the T/C (endpoint: median survival time, dose: 0.5 mg/kg/injection, schedule: Q01DX009 (ip), vehicle: saline, higher = longer survival) is 118 % of control; the T/C (endpoint: median survival time, dose: 1.0 mg/kg/injection, schedule: Q01DX009 (ip), vehicle: saline, higher = longer survival) is 102 % of control.

Turning to `CC1(C)CC(O)(C(Cl)c2ccccc2)C(=O)c2ccccc21` (stereo unspecified), the T/C is 96 % of control (endpoint: median survival time, dose: 88.0 mg/kg/injection, schedule: Q01DX009 (ip), vehicle: distilled water + Tween-80, higher = longer survival); 97 % of control (endpoint: median survival time, dose: 133.0 mg/kg/injection, schedule: Q01DX009 (ip), vehicle: distilled water + Tween-80, higher = longer survival); 93 % of control (endpoint: median survival time, dose: 200.0 mg/kg/injection, schedule: Q01DX009 (ip), vehicle: distilled water + Tween-80, higher = longer survival); 89 % of control (endpoint: median survival time, dose: 300.0 mg/kg/injection, schedule: Q01DX009 (ip), vehicle: distilled water + Tween-80, higher = longer survival); 71 % of control (endpoint: median tumor weight (est.), dose: 133.0 mg/kg/injection, schedule: Q01DX009 (ip), vehicle: distilled water + Tween-80, higher = larger tumour); 106 % of control (endpoint: median tumor weight (est.), dose: 200.0 mg/kg/injection, schedule: Q01DX009 (ip), vehicle: distilled water + Tween-80, higher = larger tumour). Besides, where the note is “endpoint: median tumor weight (est.), dose: 300.0 mg/kg/injection, schedule: Q01DX009 (ip), vehicle: distilled water + Tween-80, higher = larger tumour”, the T/C is 91 % of control.

In the case of `COc1cccc2c1C(=O)c1c(O)c3c(c(O)c1C2=O)CC(O)(C(=O)CO)CC3OC1CC(N)C(O)C(C)O1` (stereo unspecified), the T/C (endpoint: median survival time, dose: 2.9 mg/kg/injection, schedule: Q01DX009 (ip), vehicle: saline, higher = longer survival) is 103 % of control and the T/C (endpoint: median survival time, dose: 5.8 mg/kg/injection, schedule: Q01DX009 (ip), vehicle: saline, higher = longer survival) is 107 % of control.

As for `O=NN(CCF)C(=O)NC1CCS(=O)(=O)CC1`, the T/C runs as follows: (endpoint: median survival time, dose: 24.0 mg/kg/injection, schedule: Q01DX001 (ip), vehicle: other, higher = longer survival) 156 % of control; (endpoint: median survival time, dose: 32.0 mg/kg/injection, schedule: Q01DX001 (ip), vehicle: other, higher = longer survival) 175 % of control.

With `CCCCC(=O)OCC(=O)[C@]1(O)Cc2c(O)c3c(c(O)c2[C@@H](OC2CC(NC(=O)C(F)(F)F)C(O)C(C)O2)C1)C(=O)c1c(OC)cccc1C3=O` (stereo partly specified), the T/C by setting is: (endpoint: median survival time, dose: 9.0 mg/kg/injection, schedule: Q01DX008 (ip), vehicle: distilled water + Tween-80, higher = longer survival) 104 % of control; (endpoint: median survival time, dose: 13.0 mg/kg/injection, schedule: Q01DX008 (ip), vehicle: distilled water + Tween-80, higher = longer survival) 118 % of control; (endpoint: median survival time, dose: 20.0 mg/kg/injection, schedule: Q01DX008 (ip), vehicle: distilled water + Tween-80, higher = longer survival) 110 % of control; (endpoint: median survival time, dose: 30.0 mg/kg/injection, schedule: Q01DX008 (ip), vehicle: distilled water + Tween-80, higher = longer survival) 124 % of control.

Take `OC(CCl)CN1CC[N+]2(CC1)CC[N+]1(CCN(CC(O)CCl)CC1)CC2` (stereo unspecified): the T/C was 162 % of control (endpoint: median survival time, dose: 134.0 mg/kg/injection, schedule: Q01DX007 (ip), vehicle: saline, higher = longer survival); 112 % of control (endpoint: median survival time, dose: 200.0 mg/kg/injection, schedule: Q01DX009 (ip), vehicle: saline, higher = longer survival); 173 % of control (endpoint: median survival time, dose: 300.0 mg/kg/injection, schedule: Q01DX007 (ip), vehicle: saline, higher = longer survival); 161 % of control (endpoint: median survival time, dose: 300.0 mg/kg/injection, schedule: Q01DX009 (ip), vehicle: saline, higher = longer survival); 108 % of control (endpoint: median survival time, dose: 670.0 mg/kg/injection, schedule: Q01DX001 (ip), vehicle: saline, higher = longer survival); 92 % of control under setting [1]. In addition, the T/C (endpoint: median survival time, dose: 1500.0 mg/kg/injection, schedule: Q01DX001 (ip), vehicle: saline, higher = longer survival) was 120 % of control.

Take `c1ccc([As+](c2ccccc2)(c2ccccc2)c2ccccc2)cc1`: the T/C is, setting by setting: (endpoint: median survival time, dose: 1.87 mg/kg/injection, schedule: Q01DX009 (ip), vehicle: Klucel (hydroxypropylcellulose) (HPC), higher = longer survival) 95 % of control; (endpoint: median survival time, dose: 3.75 mg/kg/injection, schedule: Q01DX009 (ip), vehicle: Klucel (hydroxypropylcellulose) (HPC), higher = longer survival) 109 % of control.

Regarding `O=[N+]([O-])c1nccn1CC(O)CO` (stereo unspecified), the T/C reads like this: under setting [1], 91 % of control; (endpoint: median survival time, dose: 2500.0 mg/kg/injection, schedule: Q01DX001 (ip), vehicle: saline, higher = longer survival) 85 % of control.

Consider `Nc1nc(=S)c2[nH]cnc2[nH]1`, for which the T/C (endpoint: median survival time, dose: 48.0 mg/kg/injection, schedule: Q01DX001 (ip), vehicle: alkali diluted with saline, higher = longer survival) is 102 % of control.

In the case of `Nc1ccc(N(CCCl)CCN(CCCl)c2ccc(N)cc2)cc1`, the T/C runs as follows: (endpoint: median survival time, dose: 0.36 mg/kg/injection, schedule: Q01DX009 (ip), vehicle: saline, higher = longer survival) 124 % of control; (endpoint: median survival time, dose: 0.75 mg/kg/injection, schedule: Q01DX009 (ip), vehicle: saline, higher = longer survival) 114 % of control; (endpoint: median survival time, dose: 1.5 mg/kg/injection, schedule: Q01DX009 (ip), vehicle: saline, higher = longer survival) 103 % of control; (endpoint: median survival time, dose: 3.0 mg/kg/injection, schedule: Q01DX009 (ip), vehicle: saline, higher = longer survival) 98 % of control.

As to `OC(CBr)C(O)C(O)C(O)CBr` (stereo unspecified), the T/C was 102 % of control (endpoint: median survival time, dose: 20.0 mg/kg/injection, schedule: Q01DX009 (ip), vehicle: Klucel (hydroxypropylcellulose) (HPC), higher = longer survival); 106 % of control (endpoint: median survival time, dose: 40.0 mg/kg/injection, schedule: Q01DX009 (ip), vehicle: Klucel (hydroxypropylcellulose) (HPC), higher = longer survival); 113 % of control (endpoint: median survival time, dose: 125.0 mg/kg/injection, schedule: Q01DX009 (ip), vehicle: Klucel (hydroxypropylcellulose) (HPC), higher = longer survival); 106 % of control (endpoint: median survival time, dose: 150.0 mg/kg/injection, schedule: Q01DX009 (ip), vehicle: Klucel (hydroxypropylcellulose) (HPC), higher = longer survival); 123 % of control (endpoint: median survival time, dose: 250.0 mg/kg/injection, schedule: Q01DX009 (ip), vehicle: Klucel (hydroxypropylcellulose) (HPC), higher = longer survival).

`N=[N+]=CC(=O)CCC(NC(=O)C(CCC(=O)C=[N+]=N)NC(=O)CCC(N)C(=O)O)C(=O)O` (stereo unspecified): the T/C (endpoint: median survival time, dose: 0.1 mg/kg/injection, schedule: Q01DX009 (ip), vehicle: saline, higher = longer survival) is 95 % of control; the T/C (endpoint: median survival time, dose: 0.2 mg/kg/injection, schedule: Q01DX009 (ip), vehicle: saline, higher = longer survival) is 95 % of control; the T/C (endpoint: median survival time, dose: 0.4 mg/kg/injection, schedule: Q01DX009 (ip), vehicle: saline, higher = longer survival) is 94 % of control; the T/C (endpoint: median survival time, dose: 0.8 mg/kg/injection, schedule: Q01DX009 (ip), vehicle: saline, higher = longer survival) was 91 % of control; the T/C (endpoint: median survival time, dose: 1.6 mg/kg/injection, schedule: Q01DX009 (ip), vehicle: saline, higher = longer survival) is 98 % of control; the T/C (endpoint: median survival time, dose: 12.5 micrograms/kg/injection, schedule: Q01DX009 (ip), vehicle: saline, higher = longer survival) was 113 % of control. For the same compound, the T/C (endpoint: median survival time, dose: 25.0 micrograms/kg/injection, schedule: Q01DX009 (ip), vehicle: saline, higher = longer survival) was 117 % of control; the T/C (endpoint: median survival time, dose: 50.0 micrograms/kg/injection, schedule: Q01DX009 (ip), vehicle: saline, higher = longer survival) is 97 % of control; the T/C (endpoint: median survival time, dose: 100.0 micrograms/kg/injection, schedule: Q01DX009 (ip), vehicle: saline, higher = longer survival) was 102 % of control; the T/C (endpoint: median tumor weight (est.), dose: 0.2 mg/kg/injection, schedule: Q01DX009 (ip), vehicle: saline, higher = larger tumour) is 86 % of control.

Turning to `Cn1ncc2c(N)ncnc21`, the T/C (endpoint: median survival time, dose: 2.0 mg/kg/injection, schedule: Q01DX009 (ip), vehicle: Klucel (hydroxypropylcellulose) (HPC), higher = longer survival) is 104 % of control; the T/C (endpoint: median survival time, dose: 4.0 mg/kg/injection, schedule: Q01DX009 (ip), vehicle: Klucel (hydroxypropylcellulose) (HPC), higher = longer survival) is 106 % of control; the T/C (endpoint: median survival time, dose: 8.0 mg/kg/injection, schedule: Q01DX009 (ip), vehicle: Klucel (hydroxypropylcellulose) (HPC), higher = longer survival) was 115 % of control.
